Source: PubChem BioAssay (NCI)
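Five concentrations, 48 hours, 96-well plates. TGI: total growth inhibition.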

What was measured:
Assay in all cases: DTP human tumour cell line panel, 48 h
[1] = system: HCC-2998 colon
[2] = system: HT29 colon
[3] = system: UO-31 renal
[4] = system: LXFL 529 NSCLC
[5] = system: A549 NSCLC
[6] = system: SW-620 colon
[7] = system: MALME-3M melanoma
[8] = system: SF-268 CNS
[9] = system: TK-10 renal
[10] = system: ACHN renal
[11] = system: M14 melanoma
[12] = system: OVCAR-3 ovarian
[13] = system: SF-539 CNS
[14] = system: SK-MEL-2 melanoma
[15] = system: SNB-78 CNS
[16] = system: DMS 273 small cell lung
[17] = system: NCI-H226 lung
[18] = system: SNB-19 CNS
[19] = system: NCI-H522 lung
[20] = system: OVCAR-4 ovarian
[21] = system: SK-MEL-28 melanoma
[22] = system: COLO 205 colon
[23] = system: OVCAR-8 ovarian
[24] = system: KM12 colon
[25] = system: HL-60(TB) leukemia
[26] = system: HCT-116 colon
[27] = system: NCI-H460 lung
[28] = system: U251 CNS
[29] = system: SNB-75 CNS
[30] = system: RXF 393 renal
[31] = system: EKVX NSCLC
[32] = system: SN12C renal
[33] = system: UACC-257 melanoma
[34] = system: OVCAR-5 ovarian
[35] = system: KM20L2 colon
[36] = system: SF-295 CNS
[37] = system: DMS 114 small cell lung
[38] = system: DLD-1 colon
[39] = system: HOP-62 NSCLC
[40] = system: LOX IMVI melanoma
[41] = system: CAKI-1 renal
[42] = system: 786-0 renal
[43] = system: HOP-92 NSCLC
[44] = system: SK-MEL-5 melanoma
[45] = system: MDA-MB-435
[46] = system: RPMI-8226 leukemia
[47] = system: HCT-15 colon
[48] = system: K-562 leukemia
[49] = system: MCF7 breast
[50] = system: SR leukemia
[51] = system: CCRF-CEM leukemia
[52] = system: NCI/ADR-RES ovarian
[53] = system: MDA-MB-231 breast
[54] = system: DU-145 prostate
[55] = system: SK-OV-3 ovarian
[56] = system: NCI-H23 lung
[57] = system: HS 578T breast
[58] = system: BT-549 breast
[59] = system: T-47D breast
[60] = system: MDA-N
[61] = system: PC-3 prostate
[62] = system: IGROV1 ovarian
[63] = system: UACC-62 melanoma
[64] = system: A498 renal

## CCCC(C)C[C@@H](C)CC(C)/C=C(\C)c1oc(=O)c(C)c(O)c1C (stereo not given in full) (tested in a mixture with another compound)
[1]
  TGI: 25.5 µM
[2]
  TGI: 27.6 µM
[3]
  TGI: 27 µM
[4]
  TGI: 25.9 µM
[5]
  TGI: 34 µM
[6]
  TGI: 35.1 µM
[7]
  TGI: 9.17 µM
[8]
  TGI: 33.5 µM
[9]
  TGI: 33.7 µM
[10]
  TGI: 17.9 µM
[11]
  TGI: 29.1 µM
[12]
  TGI: 18.9 µM
[13]
  TGI: 30.1 µM
[14]
  TGI: 22.8 µM
[15]
  TGI: 45.9 µM
[16]
  TGI: 32.4 µM
[17]
  TGI: 30.4 µM
[18]
  TGI: 28 µM
[19]
  TGI: 31.1 µM
[20]
  TGI: 26.6 µM
[21]
  TGI: 28.2 µM
[22]
  TGI: 46 µM
[23]
  TGI: 39.7 µM
[24]
  TGI: 41.4 µM
[25]
  TGI: 29.8 µM
[26]
  TGI: 32.3 µM
[27]
  TGI: 25.1 µM
[28]
  TGI: 27.6 µM
[29]
  TGI: 28.3 µM
[30]
  TGI: 26.6 µM
[31]
  TGI: 31.9 µM
[32]
  TGI: 29.1 µM
[33]
  TGI: 29.2 µM
[34]
  TGI: 17.5 µM
[35]
  TGI: 25.7 µM
[36]
  TGI: 25.9 µM
[37]
  TGI: 32.2 µM
[38]
  TGI: 27.8 µM
[39]
  TGI: 36.5 µM
[40]
  TGI: 31.6 µM
[41]
  TGI: 28.1 µM
[42]
  TGI: 29.5 µM

## COc1cc(C(c2cc3c(cc2O)OCO3)N2CCCCC2)cc(OC)c1OC (stereo not given)
[43]
  TGI: 23.1 µM
[44]
  TGI: 34.6 µM
[1]
  TGI: 39 µM
[2]
  TGI: 33.3 µM
[45]
  TGI: 16.8 µM
[3]
  TGI: 28.3 µM
[5]
  TGI: 45.8 µM
[6]
  TGI: 12 µM
[46]
  TGI: > 26.9 µM
[47]
  TGI: 30.8 µM
[48]
  TGI: > 21.3 µM
[7]
  TGI: 26.1 µM
[8]
  TGI: 31.5 µM
[9]
  TGI: 31.2 µM
[10]
  TGI: 31.1 µM
[49]
  TGI: 29.3 µM
[11]
  TGI: 18.5 µM
[50]
  TGI: > 23.5 µM
[12]
  TGI: 26.9 µM
[13]
  TGI: 33.9 µM
[14]
  TGI: 32.9 µM
[17]
  TGI: 41.6 µM
[18]
  TGI: 46.9 µM
[19]
  TGI: 26.7 µM
[51]
  TGI: 19.2 µM
[20]
  TGI: 25.2 µM
[21]
  TGI: 32 µM
[22]
  TGI: 26.6 µM
[23]
  TGI: 28.1 µM
[24]
  TGI: 34 µM
[25]
  TGI: 4.16 µM
[26]
  TGI: 30.4 µM
[52]
  TGI: 39.2 µM
[53]
  TGI: 29.3 µM
[27]
  TGI: 45.8 µM
[54]
  TGI: 35.6 µM
[28]
  TGI: 30.2 µM
[55]
  TGI: 56.2 µM
[56]
  TGI: 31.8 µM
[29]
  TGI: 33.5 µM
[57]
  TGI: 43.5 µM
[30]
  TGI: 27.6 µM
[31]
  TGI: 39.5 µM
[32]
  TGI: 25.1 µM
[33]
  TGI: 25.7 µM
[58]
  TGI: 24.4 µM
[59]
  TGI: 47.8 µM
[34]
  TGI: 32.2 µM
[60]
  TGI: 19.8 µM
[36]
  TGI: > 100 µM
[61]
  TGI: 30.6 µM
[62]
  TGI: 32.4 µM
[63]
  TGI: 30.6 µM
[39]
  TGI: > 70.9 µM
[40]
  TGI: 28.4 µM
[41]
  TGI: 27.6 µM
[42]
  TGI: 12.9 µM
[64]
  TGI: 35.5 µM
